Experimental findings from patent publication US4052455A, “Styrylamidines” (Mead Johnson & Company, priority 1975, dated 1977) are described below.

Assay [1] has as its system blood platelet aggregation. Kind of assay: Oral administration to rabbits; inhibition of blood platelet aggregation induced by ADP or collagen in platelet rich plasma (Example 56). Format: in vivo. To be noted: rabbit, oral single dose 25 mg./kg.; for % Inhibition of Blood Platelet Aggregation Induced by ADP: ADP 0.25-1.0 microgram; for % Inhibition of Blood Platelet Aggregation Induced by Collagen: lowest amount of collagen giving maximal aggregation. How it is done: (§1) Measurement of the antithrombogenic activity of the compounds of Formula I is carried out by standard pharmacological tests essentially described by Born, Nature, 194, 927 (1962) and O'Brien, J. Clin. Path., 15, 446 (1962). This test comprises a nephelometric method is which the change in turbidity of a specimen of platelet rich plasma (human or rabbit) is measured on causation of platelet aggregation by addition of a thrombogenic inducing agent such as adenosine diphosphate or collagen. The compounds of the present invention are effective antithrombogenic agents according to this test at concentrations in the order of about 0.5 to 90 mcg./0.5 ml. platelet rich plasma. In the intact animal, the antithrombogenic effect is readily observed by applying the above test to blood samples withdrawn prior to and after administration of a compound of the present invention.
The styrylamidine is orally administered to each rabbit in a group of 2-6 rabbits at a single dose of 25 mg./kg. body weight. A 8 ml. portion of blood is drawn just prior to dosing in order to obtain a control value and at various time periods thereafter. Platelet rich plasma is prepared from each blood sample by centrifugation at 200 times gravity for 10 min. at room temperature. Samples (0.5 ml.) of platelet rich plasma are tested for their ability to aggregate with either collagen or adenosine-5'-diphosphate added as specified in the modification of Born and O'Brien method which has been fully described hereinbefore. The results shown below indicate the inhibition of blood platelet aggregation induced by the lowest amount of collagen giving maximal aggregation or 0.25-1.0 microgram adenosine-5'-diphosphate for representative amidines.

The next assay concerns platelet aggregation. Nature of the assay: Born/O'Brien nephelometric platelet aggregation test in platelet rich plasma (ADP or collagen induced). The assay is classed as cell-based. The note with it: human or rabbit platelet rich plasma, 50% or more reduction, read-out: Concentration at which collagen or adenosine diphosphate induced platelet aggregation is reduced by 50% or more. The protocol: as §1

Assay [2] concerns phenylquinone writhing syndrome. Kind of assay: Phenylquinone writhing test (analgesic activity). Format: in vivo. To be noted: mice. How it is done:
In this test, groups of 10-20 mice are injected subcutaneously or orally with different doses of the test compound. At predetermined time intervals, the mice receive 2.5 mg./kg. phenylquinone intraperitoneally. The total number of writhing episodes is counted for each mouse for 10 min. and the average percent decrease in writhing recorded for each dose.
The novel styrylsulfonylamidines of Formula V in addition to being useful as precursors to the styrylamidine products of Formula I have analgesic utility as measured in the foregoing phenylquinone writhing test. A preferred class of styrylsulfonylamidines of Formula V having particularly significant analgesic activity are those wherein R1 and R2 are each hydrogen, nitro or halogen and A is phenyl or lower alkyl of from 1 to 8 carbon atoms inclusive. Analgesic activity at the time interval indicated following administration of compounds representative of this class are given in Table I below.
A general note: In writhing tests, fewer writhes than in controls are read as antinociception.

[3] abbreviates: subcutaneous 6 mg./kg., time interval 30 min.

Molecules are shown by their SMILES. Structures can show the parent of a compound that is named as a salt.

For `CC(=N)N/C=C/c1ccc(Cl)c(Cl)c1` [N-(3,4-DICHLOROSTYRYL)ACETAMIDINE HYDROCHLORIDE], the “% Inhibition of Blood Platelet Aggregation Induced by ADP” value (from here on “% Inhibition … by ADP”) turned out to be 50% in assay [1] (1 hr.); 52% in assay [1] (2 hrs.); 67% in assay [1] (4 hrs.); 55% in assay [1] (6 hrs.); 0% in assay [1] (24 hrs.). In addition, the “% Inhibition of Blood Platelet Aggregation Induced by Collagen” value (“% Inhibition … by Collagen” below) turned out to be 67% in assay [1] (1 hr.); 50% in assay [1] (2 hrs.); 85% in assay [1] (4 hrs.); 55% in assay [1] (6 hrs.); 0% in assay [1] (24 hrs.). For the same compound, the IC50 with platelet aggregation was less than 30 µg/mL.

For `CC(=N)NS(=O)(=O)C=Cc1ccccc1` [N-(styrylsulfonyl)acetamidine, N-(STYRYLSULFONYL)ACETAMIDINE], in assay [2] (subcutaneous 6 mg./kg., time interval 15 min.), the “Analgesic activity, Percent Inhibition” value was 38%.

In the case of `N=C(N/C=C/c1ccc(N)cc1)c1cccc(N)c1` [3-AMINO-N-(4-AMINOSTYRYL)BENZAMIDINE TRIHYDROCHLORIDE MONOHYDRATE], the IC50 with platelet aggregation is less than 30 µg/mL.

In the case of `CC(=N)NS(=O)(=O)C=Cc1ccc([N+](=O)[O-])cc1` [N-(4-nitrostyrylsulfonyl)-acetamidine, N-(4-NITROSTYRYLSULFONYL)ACETAMIDINE], the “Analgesic activity, Percent Inhibition” value in assay [2] (subcutaneous 6 mg./kg., time interval 60 min.) was 36%.

For `CC(=O)Nc1ccc(/C=C/NC(=N)c2ccccc2)cc1` [N-(4-ACETAMIDOSTYRYL)BENZAMIDINE HYDROCHLORIDE], the IC50 in the assay with platelet aggregation was less than 30 µg/mL.

For the compound `N=C(N/C=C/c1ccc([N+](=O)[O-])cc1)c1ccc(N)cc1` [4-AMINO-N-(4-NITROSTYRYL)BENZAMIDINE HYDROCHLORIDE], the IC50 with platelet aggregation was less than 30 µg/mL.

For the compound `N=C(N/C=C/c1ccc([N+](=O)[O-])cc1)c1cc(N)cc(N)c1` [3,5-DIAMINO-N-(4-NITROSTYRYL)-BENZAMIDINE TRIHYDROCHLORIDE], in the assay with platelet aggregation, the IC50 is less than 30 µg/mL.

Consider `N=C(N/C=C/c1ccc(N)cc1)c1ccccc1` [N-(4-AMINOSTYRYL)BENZAMIDINE DIHYDROCHLORIDE], for which, in the assay with platelet aggregation, the IC50 was less than 30 µg/mL.

For `N=C(N/C=C/c1ccc(Cl)c(Cl)c1)C1CC1` [N-(3,4-dichlorostyryl)cyclopropanecarboxamidine], the IC50 in the assay on platelet aggregation is less than 30 µg/mL.

Turning to `CC(=N)N/C=C/c1ccc(C2CCCCC2)c(Br)c1` [N-(3-BROMO-4-CYCLOHEXYLSTYRYL)ACETAMIDINE HYDROCHLORIDE], in the assay on platelet aggregation, the IC50 was less than 30 µg/mL.

Take `N=C(N/C=C/c1ccc(N)cc1)c1ccc(N)cc1` [4-AMINO-N-(4-AMINOSTYRYL)BENZAMIDINE TRIHYDROCHLORIDE]: the IC50 in the assay with platelet aggregation was less than 30 µg/mL.

For the compound `CCCC(=N)N/C=C/c1ccc(Cl)c(Cl)c1` [N-(3,4-DICHLOROSTYRYL)BUTYRAMIDINE HYDROCHLORIDE], the “% Inhibition … by ADP” value in assay [1] (1 hr.) was 18%; in assay [1] (2 hrs.) it was 67%; in assay [1] (4 hrs.) it was 37%; in assay [1] (6 hrs.), 30%; in assay [1] (24 hrs.), 0%. Also, the “% Inhibition … by Collagen” value worked out at 30% in assay [1] (1 hr.); 92% in assay [1] (2 hrs.); 32% in assay [1] (4 hrs.); 45% in assay [1] (6 hrs.); 0% in assay [1] (24 hrs.).

For `N=C(NS(=O)(=O)C=Cc1ccccc1)c1ccccc1` [N-(styrylsulfonyl)benzamidine, N-(STYRYLSULFONYL)BENZAMIDINE], the “Analgesic activity, Percent Inhibition” value is recorded as 26% in assay [2] (oral 100 mg./kg., time interval 60 min.) and 36% in assay [2] (setting [3]).

Take `CN(C)c1ccc(C(=N)N/C=C/c2ccc([N+](=O)[O-])cc2)cc1` [4-(DIMETHYLAMINO)-N-(4-NITROSTYRYL)-BENZAMIDINE ISETHIONATE]: the IC50 in the assay on platelet aggregation is less than 30 µg/mL.

Regarding `CC(C)(C)C(=N)N/C=C/c1ccc(Cl)c(Cl)c1` [N-(3,4-DICHLOROSTYRYL)-2,2-DIMETHYLPROPIONAMIDINE], the “% Inhibition … by ADP” value in assay [1] (1 hr.) is listed as 60%; in assay [1] (2 hrs.) it was 25%; in assay [1] (4 hrs.), 67%; in assay [1] (6 hrs.), 87%; in assay [1] (24 hrs.), 0%. Further, the “% Inhibition … by Collagen” value is 78% in assay [1] (1 hr.); 80% in assay [1] (2 hrs.); 95% in assay [1] (4 hrs.); 95% in assay [1] (6 hrs.); 0% in assay [1] (24 hrs.).

Take `N=C(N/C=C/c1ccccc1)c1ccccc1` [N-styrylbenzamidine hydrochloride, N-STYRYLBENZAMIDINE HYDROCHLORIDE]: in the assay with platelet aggregation, the IC50 was less than 30 µg/mL.

On to `CC(=N)NS(=O)(=O)C=Cc1ccc(Cl)c(Cl)c1` [N-[(3,4-DICHLOROSTYRYL)SULFONYL]ACETAMIDINE], for which the “Analgesic activity, Percent Inhibition” value in assay [2] (oral 100 mg./kg., time interval 120 min.) is on record as 36%; in assay [2] (setting [3]), 28%.

Take `N=C(N/C=C/c1ccccc1N)c1ccccc1` [N-(2-AMINOSTYRYL)BENZAMIDINE DIHYDROCHLORIDE]: in the assay with platelet aggregation, the IC50 is less than 30 µg/mL.

For `N=C(N/C=C/c1ccc(Cl)c(Cl)c1)c1ccccc1` [N-(3,4-DICHLOROSTYRYL)BENZAMIDINE HYDROCHLORIDE], the “% Inhibition … by ADP” value in assay [1] (0.5 hrs.) is reported as 61%; in assay [1] (2 hrs.), 54%; in assay [1] (4 hrs.) it was 30%; in assay [1] (6 hrs.), 22%; in assay [1] (24 hrs.), 0%. The “% Inhibition … by Collagen” value is reported as 73% in assay [1] (0.5 hrs.); 65% in assay [1] (2 hrs.); 26% in assay [1] (4 hrs.); 3% in assay [1] (6 hrs.); 0% in assay [1] (24 hrs.).

Take `N=C(N/C=C/c1ccc(Cl)c(Cl)c1)C1CC1` [N-(3,4-DICHLOROSTYRYL)CYCLOPROPANECARBOXAMIDINE HYDROCHLORIDE]: the “% Inhibition … by ADP” value in assay [1] (1 hr.) was found to be 60%; in assay [1] (2 hrs.) it was 55%; in assay [1] (4 hrs.) it was 90%; in assay [1] (6 hrs.), 75%; in assay [1] (24 hrs.), 5%. For the same compound, the “% Inhibition … by Collagen” value in assay [1] (1 hr.) turned out to be 65%; in assay [1] (2 hrs.), 85%; in assay [1] (4 hrs.), 97%; in assay [1] (6 hrs.), 87%; in assay [1] (24 hrs.) it was 15%.
